Assays:
Format in all cases: cell-based
Staphylococcus aureus = test: glass slide carrier spray disinfection test, Staphylococcus aureus; settings: 75 ppm antimicrobial agent, no polyethertriamine; 10 minutes contact time
Procedure: (§1) In this example, Pseudomonas aeruginosa or Staphylococcus aureus were dried on glass slides and then sprayed with disinfectant compositions prepared according to the present disclosure. The organism load on the slide was controlled between 5 and 6 log 10 (equals to 10^5 to 10^6 organisms). The spray bottle containing the disinfectant was placed 4 inches away from the carrier and five sprays were applied. After 10 minutes contact time, the carriers are aseptically transferred to 20 ml of letheen broth (neutralizer/growth media). These letheen broth tubes with the carriers are then incubated at 37±1 °C for 48 hours. After 48 hours, a cloudy letheen tube indicates growth or failure and a clear tube indicates no growth or pass.
(§2) The polyethertriamine used was JEFFAMINE T403 polyetheramine obtained from Huntsman Corporation of Houston, Texas.
(§3) In the example below, the alkyl dimethyl benzyl ammonium chloride contained a mixture of 50% by weight C14, 10% by weight C16, and 40% by weight C12 dimethyl benzyl ammonium chloride.
(§4) In the table below, PHMB stands for polyhexamethylene biguanide.

Pseudomonas aeruginosa [1] = test: glass slide carrier spray disinfection test, Pseudomonas aeruginosa; settings: 75 ppm antimicrobial agent, no polyethertriamine; 10 minutes contact time
Procedure: as §1, §2, §3, §4

[2] = system: Pseudomonas aeruginosa (ATCC 15442); test: EN1276 suspension test, dirty condition, 5 minutes; settings: for Log Reduction: no polyethertriamine, with 5.00 disodium cocoamphodiproprionate, 15.00 isopropyl alcohol, 5 minutes
Procedure: In particular, varying amounts of para-chloro-metal-xylenol (PCMX) were combined and tested with and without different adjuvants of the present disclosure.
In this example, the same polyethertriamine described in Example No. 1 was used. The disodium cocoamphodiproprionate used was Amphoterge® K-2 obtained from Arxada AG. The methylglycinediacetic acid used was Trilon® M obtained from BASF Corporation.
In tables 9 and 10, antimicrobial efficacy was evaluated according to the EU Standard EN1276 method against Pseudomonas aeruginosa (ATCC 15442) for a contact time of 5 minutes in dirty condition. Test compounds were diluted in hardwater with a total hardness of 375 ppm as CaCo3 pursuant to the Organization for Economic Co-operation and Development (OECD) and used within 2 hours of preparation. The test inoculum was adjusted to the concentration of 1.5-5×10^8 colony forming units (CFU) in Tryptone Sodium Chloride buffer (TSC, 1.0 g tryptone, 8.5 g NaCl, 1 L H2O). For the challenge test, 1 ml of the test inocula was mixed with 1 ml of Bovine Serum Albumin (final concentration 3 g/L) and held for 2 minutes before it was exposed to 8 mL of test compound. The test suspension was then mixed and held for the contact time of 5 minutes at 20±1 °C. At the end of the exposure time, 1 ml of the test mixture was transferred to a tube containing 9 ml neutralizing solution and held for 5 minutes before it was serially diluted and plated onto TSA plates. The plates were incubated at 37 °C for 48 hours before the numbers of CFU per ml in the test suspensions relative to the controls were calculated. Test and control procedures were performed in duplicate and carried out in parallel with the neutralization validation controls, as described in the standard.

Klebsiella pneumoniae = test: modified EN 1040 suspension test, Klebsiella pneumoniae; settings: 1.25 ppm antimicrobial agent, 60 seconds
Description: (§5) In particular, various antimicrobial agents and mixtures were combined and tested with and without the adjuvant of the present disclosure.
(§6) In this example, the same polyethertriamine described in Example No. 1 was used. In addition, the alkyl dimethyl benzyl ammonium chloride was the same mix as described in Example No. 1. The alkyl dimethyl ammonium chloride mix used in the samples below contained 40% by weight of octyl decyl dimethyl ammonium chloride, 16% by weight dioctyl dimethyl ammonium chloride, and 24% by weight of didecyl dimethyl ammonium chloride.
(§7) The modified EN 1040 suspension test was used to determine the efficacy of the test systems. The testing was performed for a contact time of 60 seconds in comparison to an identical composition not containing the adjuvant but containing the antimicrobial agent at the same concentration. Bacteria were stored at −80 °C using Microbank™ beads (Prolab diagnostics). Cultures were prepared in 250 mL baffled shake flasks with 25 mL of Tryptic Soy Broth (TSB) using one bead. After 18+/−8 hours incubation at 37 °C and 150 rpm, the inocula are prepared for the test.
(§8) The inocula were prepared by diluting the bacteria to 2.5×10^6 CFU/mL in phosphate buffered saline (PBS). Test compounds are prepared in DI water. Three levels of each test compound were prepared by serial two-fold dilution in the same hardwater. For each biological repetition, the test compounds were tested at 3 levels in quadruplicate with one quadruplicate control with no test compound.
The varying compositions were then mixed with the inocula in an 80:20 (test composition: inocula) ratio. After 60 seconds, the test composition/inocula mixture was neutralized by a 10-fold dilution in Letheen broth. […]
(§9) The average log reduction was calculated using the six dilutions.
Various different formulations were tested against Klebsiella pneumoniae and Pseudomonas aeruginosa. […] The average log reduction was recorded in addition to the difference in log reduction between the formulation containing the polyethertriamine and the formulation not containing the polyethertriamine.

Pseudomonas aeruginosa [3] = test: modified EN 1040 suspension test, Pseudomonas aeruginosa; settings: 1.25 ppm antimicrobial agent, 60 seconds
Description: as §5, §6, §7, §8
The varying compositions were then mixed with the inocula in an 80:20 (test composition: inocula) ratio. After 60 seconds, the test composition/inocula mixture was neutralized by a 10-fold dilution in Letheen broth. After neutralization of the test composition/inocula mixture, five more 10-fold dilutions were made. The six dilutions were incubated at 35 °C for 24 h+/−1 h. Neutralization was verified separately.
as §9
Various different formulations were tested against Klebsiella pneumoniae and Pseudomonas aeruginosa. The antimicrobial concentrations were tested at 5 ppm, 2.5 ppm, and 1.25 ppm. The antimicrobial blends were mixed at the indicated ratios by weight percent. The formulations were tested with and without the polyethertriamine (PEA). The polyethertriamine was added at weight ratios of 20:1, 40:1, 80:1, and 200:1 with respect to the antimicrobial agent(s). The average log reduction was recorded in addition to the difference in log reduction between the formulation containing the polyethertriamine and the formulation not containing the polyethertriamine.

Row | Structure (SMILES) | # Fails out of 10 (Staphylococcus aureus) | # Fails out of 10 (Pseudomonas aeruginosa [1]) | Log Reduction ([2]; 0.50% para-chloro-meta-xylenol, 1:5 dilution (1000 ppm)) [log] | Log Reduction ([2]; 1.00% para-chloro-meta-xylenol, 1:5 dilution (2000 ppm)) [log] | performance in presence of the adjuvants ([2]; Example No. 3) | Average Log Kill (Klebsiella pneumoniae; 0 ppm PEA) [log] | Delta Log Kill (Klebsiella pneumoniae; 250 ppm PEA vs 0) [log] | Average Log Kill (Klebsiella pneumoniae; 250 ppm PEA) [log] | Average Log Kill (Pseudomonas aeruginosa [3]; 0 ppm PEA) [log] | Delta Log Kill (Pseudomonas aeruginosa [3]; 100 ppm PEA vs 0) [log] | Average Log Kill (Pseudomonas aeruginosa [3]; 100 ppm PEA) [log] | Delta Log Kill (Pseudomonas aeruginosa [3]; 250 ppm PEA vs 0) [log] | Average Log Kill (Pseudomonas aeruginosa [3]; 250 ppm PEA) [log]
1 | N=C(NCCCCCCNC(=N)NC(=N)Nc1ccc(Cl)cc1)NC(=N)Nc1ccc(Cl)cc1 [Chlorohexidine] | 10 out of 10 | 10 out of 10 |  |  |  |  |  |  |  |  |  |  | 
2 | Cc1cc(O)cc(C)c1Cl [Para-chloro-meta-xylenol, 4-chloro-3,5-dimethylphenol] |  |  | 0.83 | 2.56 | dramatically improved the performance |  |  |  |  |  |  |  | 
3 | CCCCCCCCCC[N+](C)(C)CCCCCCCCCC.[Cl-] [didecyl dimethyl ammonium chloride] | 1 out of 10 | 9 out of 10 |  |  |  | 0.46 | 1.38 | 1.83 | 1.58 | 0.92 | 2.50 | 0.29 | 1.88

Reference: patent publication US20260375094A1, “Disinfectant Compositions” (ARXADA, LLC, priority 2022, published 2026)
